# Patent publication US9079859B2, “Synthetic lethal targeting of glucose transport” (AUCKLAND UNISERVICES LIMITED, priority 2011, dated 2015)
# What was measured:
# RCC4 and RCC4/VHL cells = assay: Apoptosis (nuclear condensation, annexin V / propidium iodide); type: cell-based; details: VHL-deficient and wild-type VHL RCCs, DAPI
# VHL-deficient cells [1] = assay: Extracellular acidification rate, VHL-deficient cells; type: cell-based; design: dose or concentration left out as unconfirmed; details: VHL-deficient cells vs control-treated; 48 hours
# Protocol: (§1) HIF is important to adapting to low oxygen conditions through the transcription of many genes, including those involved in glucose metabolism. It was hypothesized that STF-31 might inhibit metabolic pathways, leading to necrotic cell death. To examine whether this compound alters glycolysis, intracellular lactate, which is rapidly converted from the glycolysis end product pyruvate, and extracellular acidification were measured. Baseline levels of glycolysis were lower in wild-type VHL cells compared to VHL-deficient cells (FIGS. 2, A and B), likely a result of the constitutive expression of HIF and subsequent overexpression of glucose transporters and glycolytic enzymes in the latter.
# cells with wild-type VHL = assay: Glycolysis (lactate, extracellular acidification), wild-type VHL cells; type: cell-based; details: lactate and extracellular acidification
# Protocol: as §1
# 786-O cells = assay: Glucose uptake (2-deoxy-D-[3H]glucose), 786-O; type: cell-based; details: 5 μM (FIG. 6C)
# Protocol: (§2) Glucose Uptake. One hundred thousand cells were plated per well in a six-well plate. The next day, cells were treated with the indicated concentration of drug and incubated for the indicated time. Cells were then washed twice with phosphate-buffered saline, incubated in low-glucose medium for 30 minutes, and 3H-2-deoxyglucose (0.5 μCi) was added in 1 ml of glucose-free media for an additional hour. Cells were washed twice in PBS and lysed (0.2 N NaOH and 0.2% sodium dodecyl sulfate). Glucose uptake was quantified with a scintillation counter.
# RCC4/VHL cells = assay: Glucose uptake (2-deoxy-D-[3H]glucose), RCC4/VHL; type: cell-based
# Protocol: as §2
# [2] = tested on: VHL-deficient and wild-type VHL cells; assay: Oxygen consumption; type: cell-based
# Protocol: Oxygen Consumption. Following treatment with vehicle or drug, cells were trypsinized, suspended at 5 million cells per ml in DMEM+10% FCS, and oxygen consumption was measured in 0.5 ml volume using an Oxytherm electrode unit (Hansatech).
# VHL-deficient cells [3] = assay: ATP levels (bioluminescence assay); type: cell-based
# Protocol: (§3) Cell Culture and Reagents. All cells were grown in DMEM+10% FCS. ACHN and ACHN shVHL were a kind gift from George V. Thomas (UCLA). HIF overexpressing clones were described previously (Sutphin et al., Cancer Res, 67:5896-5905 (2007)). Transfection of RNA oligos were performed with DnarmaFECT Reagent 1 (Dharmcon), according to manufacturer's directions. ON-TARGETplus SMART pools against HIF-1 R/ARNT were purchased from Dharmacon. Inducible shRNAmir to GLUT1 was purchased from Open Biosystems. GLUT1 was detected with anti-GLUT1 antibody from NeoMarkers/LabVision/Fisher. For immunofluorescent studies, GLUT1, GLUT2, and GLUT3 antibodies were purchased from R&D. Pyruvate/lactate levels and hexokinase activity were both measured by fluorometric assay (BioVision and Sigma-Aldrich, respectively). ATP levels were measured by bioluminescence assay (ATP Determination Kit from Molecular Probes/Invitrogen). In vitro kinase activities were performed by Millipore Kinase Profiler.
# RCC4/VHL = assay: RCC panel sensitivity (Table 2); type: cell-based; details: VHL wild-type
# 786/VHL = assay: RCC panel sensitivity (Table 2); type: cell-based; details: VHL wild-type
# AMPK = assay: Kinase Profiler; type: biochemical; details: STF-31 10 μM
# Protocol: as §3
# CSK = target: T1, CSK (Homo sapiens, UniProt P41240); assay: Kinase Profiler; type: biochemical; details: STF-31 10 μM
# T1 construct: purchased Millipore (Kinase Profiler service)
# T1 sequence (P41240 whole entry, species assumed): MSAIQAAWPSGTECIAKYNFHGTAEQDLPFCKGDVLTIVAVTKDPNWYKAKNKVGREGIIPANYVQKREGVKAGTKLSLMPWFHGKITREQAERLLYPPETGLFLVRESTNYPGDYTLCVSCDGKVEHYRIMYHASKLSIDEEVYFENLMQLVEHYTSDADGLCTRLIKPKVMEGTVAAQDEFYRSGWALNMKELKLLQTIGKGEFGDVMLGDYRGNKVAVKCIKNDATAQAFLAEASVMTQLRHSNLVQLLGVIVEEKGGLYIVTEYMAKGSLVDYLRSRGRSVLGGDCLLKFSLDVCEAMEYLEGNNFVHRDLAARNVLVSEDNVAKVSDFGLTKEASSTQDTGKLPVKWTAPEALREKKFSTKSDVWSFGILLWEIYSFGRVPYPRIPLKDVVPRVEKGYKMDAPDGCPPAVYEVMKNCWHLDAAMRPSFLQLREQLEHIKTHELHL
# Protocol: as §3
# DYRK2 = target: T2, DYRK2 (Homo sapiens, UniProt Q92630); assay: Kinase Profiler; type: biochemical; details: STF-31 10 μM
# T2 construct: purchased Millipore (Kinase Profiler service)
# T2 sequence (Q92630 whole entry, species assumed): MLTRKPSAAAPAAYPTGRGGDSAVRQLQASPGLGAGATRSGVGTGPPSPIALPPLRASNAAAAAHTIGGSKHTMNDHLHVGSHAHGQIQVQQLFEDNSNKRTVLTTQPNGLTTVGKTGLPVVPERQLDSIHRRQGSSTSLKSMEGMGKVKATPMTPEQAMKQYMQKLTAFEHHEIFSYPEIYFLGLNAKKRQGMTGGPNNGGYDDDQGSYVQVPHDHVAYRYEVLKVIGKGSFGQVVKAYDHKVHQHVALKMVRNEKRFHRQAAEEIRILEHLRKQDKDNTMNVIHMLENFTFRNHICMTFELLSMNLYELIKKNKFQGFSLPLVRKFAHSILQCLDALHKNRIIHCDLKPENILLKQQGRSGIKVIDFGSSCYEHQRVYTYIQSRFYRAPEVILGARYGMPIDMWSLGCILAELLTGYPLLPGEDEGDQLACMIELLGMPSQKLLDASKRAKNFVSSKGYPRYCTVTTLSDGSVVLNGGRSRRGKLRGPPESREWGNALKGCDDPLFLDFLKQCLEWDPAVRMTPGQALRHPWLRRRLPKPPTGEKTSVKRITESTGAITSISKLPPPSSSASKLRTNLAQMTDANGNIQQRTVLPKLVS
# Protocol: as §3
# FGFR1 = target: T3, FGFR1 (Homo sapiens, UniProt P11362); assay: Kinase Profiler; type: biochemical; details: STF-31 10 μM
# T3 construct: purchased Millipore Kinase Profiler
# Protocol: as §3
# IGF-1R = target: T4, IGF-1R (Homo sapiens, UniProt P08069); assay: Kinase Profiler; type: biochemical; details: STF-31 10 μM
# T4 construct: purchased Millipore Kinase Profiler
# T4 sequence (P08069 31-1367, species assumed): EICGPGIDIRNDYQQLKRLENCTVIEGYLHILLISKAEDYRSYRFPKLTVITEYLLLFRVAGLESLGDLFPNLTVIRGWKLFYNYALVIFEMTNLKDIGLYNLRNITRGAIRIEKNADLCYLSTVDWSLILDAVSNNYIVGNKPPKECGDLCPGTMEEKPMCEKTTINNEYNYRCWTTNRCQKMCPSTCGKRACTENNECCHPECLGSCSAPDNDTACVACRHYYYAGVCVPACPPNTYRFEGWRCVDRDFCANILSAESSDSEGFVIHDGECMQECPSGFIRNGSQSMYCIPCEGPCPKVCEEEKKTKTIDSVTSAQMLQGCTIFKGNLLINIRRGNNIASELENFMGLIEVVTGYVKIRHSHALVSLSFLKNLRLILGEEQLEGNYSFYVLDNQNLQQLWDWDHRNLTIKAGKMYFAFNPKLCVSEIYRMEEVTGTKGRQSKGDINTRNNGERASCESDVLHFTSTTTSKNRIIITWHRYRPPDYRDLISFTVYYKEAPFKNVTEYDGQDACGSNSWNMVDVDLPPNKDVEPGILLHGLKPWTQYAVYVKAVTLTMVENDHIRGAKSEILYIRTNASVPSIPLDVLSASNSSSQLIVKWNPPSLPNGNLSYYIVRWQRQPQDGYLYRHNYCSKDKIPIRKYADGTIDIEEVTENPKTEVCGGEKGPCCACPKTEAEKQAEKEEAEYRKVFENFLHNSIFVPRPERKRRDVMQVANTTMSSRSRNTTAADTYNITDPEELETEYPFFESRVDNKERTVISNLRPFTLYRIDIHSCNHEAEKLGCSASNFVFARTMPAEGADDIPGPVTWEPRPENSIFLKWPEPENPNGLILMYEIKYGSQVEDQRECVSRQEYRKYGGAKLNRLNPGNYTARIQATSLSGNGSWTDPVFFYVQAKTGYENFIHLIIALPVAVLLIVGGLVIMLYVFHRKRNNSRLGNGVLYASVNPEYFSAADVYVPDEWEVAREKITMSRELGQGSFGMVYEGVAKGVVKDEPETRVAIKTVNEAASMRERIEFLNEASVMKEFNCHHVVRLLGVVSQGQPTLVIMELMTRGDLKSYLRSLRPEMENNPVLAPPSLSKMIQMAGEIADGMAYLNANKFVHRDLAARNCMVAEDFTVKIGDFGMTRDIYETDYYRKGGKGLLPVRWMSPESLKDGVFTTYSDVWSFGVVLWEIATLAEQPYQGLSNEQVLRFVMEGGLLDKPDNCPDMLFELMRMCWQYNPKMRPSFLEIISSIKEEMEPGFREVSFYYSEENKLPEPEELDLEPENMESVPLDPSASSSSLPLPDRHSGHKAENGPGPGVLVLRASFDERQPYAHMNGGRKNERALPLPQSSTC
# Protocol: as §3
# IKKα = target: T5, IKKα (Homo sapiens, UniProt O15111); assay: Kinase Profiler; type: biochemical; details: STF-31 10 μM
# T5 construct: purchased Millipore Kinase Profiler
# Protocol: as §3
# JAK2 = target: T6, JAK2 (Homo sapiens, UniProt O60674); assay: Kinase Profiler; type: biochemical; details: STF-31 10 μM
# T6 construct: purchased Millipore Kinase Profiler
# Protocol: as §3
# JNK1α1 = target: T7, JNK1α1 (Homo sapiens, UniProt P45983); assay: Kinase Profiler; type: biochemical; details: STF-31 10 μM
# T7 construct: purchased Millipore Kinase Profiler
# T7 sequence (P45983 1-384 isoform P45983-2, species assumed): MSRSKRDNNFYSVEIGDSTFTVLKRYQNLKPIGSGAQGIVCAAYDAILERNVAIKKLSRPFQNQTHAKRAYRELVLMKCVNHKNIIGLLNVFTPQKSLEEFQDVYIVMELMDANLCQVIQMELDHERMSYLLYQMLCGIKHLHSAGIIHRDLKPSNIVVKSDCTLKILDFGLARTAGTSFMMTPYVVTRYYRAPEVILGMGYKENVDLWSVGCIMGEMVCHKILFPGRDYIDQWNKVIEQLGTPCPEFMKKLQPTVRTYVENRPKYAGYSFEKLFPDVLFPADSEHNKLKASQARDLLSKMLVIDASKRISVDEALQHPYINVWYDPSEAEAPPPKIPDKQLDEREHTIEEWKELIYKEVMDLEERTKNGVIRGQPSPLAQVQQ
# Protocol: as §3
# MKK4 = target: T8, MKK4 (Mus musculus, UniProt P47809); assay: Kinase Profiler; type: biochemical; details: STF-31 10 μM
# T8 construct: purchased Millipore Kinase Profiler
# T8 sequence (P47809 2-397 limits assumed): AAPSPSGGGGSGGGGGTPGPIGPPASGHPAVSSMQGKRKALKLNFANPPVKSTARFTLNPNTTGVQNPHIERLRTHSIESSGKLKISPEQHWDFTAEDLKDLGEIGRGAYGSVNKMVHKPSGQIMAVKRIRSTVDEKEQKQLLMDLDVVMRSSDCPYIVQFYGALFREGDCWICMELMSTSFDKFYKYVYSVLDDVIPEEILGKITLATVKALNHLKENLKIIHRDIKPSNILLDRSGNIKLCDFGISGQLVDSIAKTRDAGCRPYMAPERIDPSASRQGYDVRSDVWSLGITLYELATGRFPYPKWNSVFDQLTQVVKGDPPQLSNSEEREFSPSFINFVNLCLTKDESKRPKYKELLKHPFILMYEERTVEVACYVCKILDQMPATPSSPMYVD
# Protocol: as §3
# NEK2 = target: T9, NEK2 (Homo sapiens, UniProt P51955); assay: Kinase Profiler; type: biochemical; details: STF-31 10 μM
# T9 construct: purchased Millipore Kinase Profiler
# T9 sequence (P51955 whole entry, species assumed): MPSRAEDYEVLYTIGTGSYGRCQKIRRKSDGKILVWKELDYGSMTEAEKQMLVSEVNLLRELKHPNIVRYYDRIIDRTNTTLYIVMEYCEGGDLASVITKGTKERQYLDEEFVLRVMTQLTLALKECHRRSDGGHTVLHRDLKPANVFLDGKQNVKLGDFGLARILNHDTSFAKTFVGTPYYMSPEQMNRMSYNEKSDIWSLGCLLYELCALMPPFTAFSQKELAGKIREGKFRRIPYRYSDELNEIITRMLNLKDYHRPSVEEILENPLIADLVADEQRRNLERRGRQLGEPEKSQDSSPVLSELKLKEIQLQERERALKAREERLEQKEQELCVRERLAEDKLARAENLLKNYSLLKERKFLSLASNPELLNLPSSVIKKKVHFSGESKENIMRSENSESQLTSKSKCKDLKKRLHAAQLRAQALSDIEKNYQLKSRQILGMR
# Protocol: as §3
# PDK1 = target: T10, PDK1 (Homo sapiens, UniProt O15530); assay: Kinase Profiler; type: biochemical; details: STF-31 10 μM
# T10 construct: purchased Millipore Kinase Profiler
# T10 sequence (O15530 whole entry): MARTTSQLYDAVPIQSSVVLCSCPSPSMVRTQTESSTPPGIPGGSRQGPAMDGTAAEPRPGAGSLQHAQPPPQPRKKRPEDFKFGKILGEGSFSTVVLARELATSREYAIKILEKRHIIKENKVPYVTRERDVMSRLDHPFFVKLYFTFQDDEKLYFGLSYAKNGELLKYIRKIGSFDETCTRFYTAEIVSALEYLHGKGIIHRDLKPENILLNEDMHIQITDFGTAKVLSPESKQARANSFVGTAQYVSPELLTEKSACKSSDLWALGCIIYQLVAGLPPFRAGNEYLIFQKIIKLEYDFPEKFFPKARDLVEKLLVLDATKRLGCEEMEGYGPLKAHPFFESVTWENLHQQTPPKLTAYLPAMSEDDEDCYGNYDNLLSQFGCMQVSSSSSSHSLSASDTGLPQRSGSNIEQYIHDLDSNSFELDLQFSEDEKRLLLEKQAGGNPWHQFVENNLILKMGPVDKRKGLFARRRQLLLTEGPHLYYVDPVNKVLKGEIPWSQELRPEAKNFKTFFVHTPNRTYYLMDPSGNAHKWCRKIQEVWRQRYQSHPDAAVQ
# Protocol: as §3
# PI3K = assay: Kinase Profiler; type: biochemical; details: STF-31 10 μM
# Protocol: as §3
# PKA = target: T11, PKA (Homo sapiens, UniProt P17612); assay: Kinase Profiler; type: biochemical; details: STF-31 10 μM
# T11 construct: purchased Millipore Kinase Profiler
# Protocol: as §3
# PKCδ = target: T12, PKCδ (Homo sapiens, UniProt Q05655); assay: Kinase Profiler; type: biochemical; details: STF-31 10 μM
# T12 construct: purchased Millipore (Kinase Profiler service)
# Protocol: as §3
# Pim-2 = target: T13, Pim-2 (Homo sapiens, UniProt Q9P1W9); assay: Kinase Profiler; type: biochemical; details: STF-31 10 μM
# T13 construct: purchased Millipore Kinase Profiler
# T13 sequence (Q9P1W9 whole entry, species assumed): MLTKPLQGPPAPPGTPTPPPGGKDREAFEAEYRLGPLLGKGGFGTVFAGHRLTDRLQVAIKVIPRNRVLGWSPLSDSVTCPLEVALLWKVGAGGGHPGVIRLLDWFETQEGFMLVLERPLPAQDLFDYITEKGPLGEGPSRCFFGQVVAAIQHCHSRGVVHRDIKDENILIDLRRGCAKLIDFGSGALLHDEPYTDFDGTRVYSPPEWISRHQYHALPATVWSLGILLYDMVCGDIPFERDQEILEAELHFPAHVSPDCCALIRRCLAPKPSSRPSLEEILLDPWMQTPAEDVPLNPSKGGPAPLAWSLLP
# Protocol: as §3
# ROCK-I = target: T14, ROCK-I (Homo sapiens, UniProt Q13464); assay: Kinase Profiler; type: biochemical; details: STF-31 10 μM
# T14 construct: purchased Millipore (Kinase Profiler service)
# Protocol: as §3
# Rsk1 = target: T15, Rsk1 (Homo sapiens, UniProt Q15418); assay: Kinase Profiler; type: biochemical; details: STF-31 10 μM
# T15 construct: purchased Millipore (Kinase Profiler service)
# Protocol: as §3
# SAPK2a = target: T16, SAPK2a (Homo sapiens, UniProt Q16539); assay: Kinase Profiler; type: biochemical; details: STF-31 10 μM
# T16 construct: purchased Millipore (Kinase Profiler service)
# T16 sequence (Q16539 whole entry, species assumed): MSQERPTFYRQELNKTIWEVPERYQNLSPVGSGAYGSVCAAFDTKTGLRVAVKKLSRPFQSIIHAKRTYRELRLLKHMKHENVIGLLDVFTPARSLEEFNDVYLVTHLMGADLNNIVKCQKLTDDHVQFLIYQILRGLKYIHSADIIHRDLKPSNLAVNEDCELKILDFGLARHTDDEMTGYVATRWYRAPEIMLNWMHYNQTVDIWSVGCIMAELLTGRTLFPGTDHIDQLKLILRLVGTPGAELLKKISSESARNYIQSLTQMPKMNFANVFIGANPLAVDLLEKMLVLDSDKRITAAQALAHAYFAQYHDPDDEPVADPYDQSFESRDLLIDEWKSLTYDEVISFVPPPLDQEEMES
# Protocol: as §3
# Syk = target: T17, Syk (Homo sapiens, UniProt P43405); assay: Kinase Profiler; type: biochemical; details: STF-31 10 μM
# T17 construct: purchased Millipore (Kinase Profiler service)
# Protocol: as §3
# cKit(D816H) = target: T18, cKit(D816H) (Homo sapiens, UniProt P10721, D816H); assay: Kinase Profiler; type: biochemical; details: STF-31 10 μM
# T18 construct: purchased Millipore (Kinase Profiler service)
# Protocol: as §3
# cSRC = target: T19, cSRC (Homo sapiens, UniProt P12931); assay: Kinase Profiler; type: biochemical; details: STF-31 10 μM
# T19 construct: purchased Millipore (Kinase Profiler service)
# Protocol: as §3
structure (smiles),measurement,setting,value
CC(C)(C)c1ccc(S(=O)(=O)NCc2ccc(C(=O)Nc3cccnc3)cc2)cc1 [STF-31],nuclear condensation,RCC4 and RCC4/VHL cells,no nuclear condensation
same,inhibition of extracellular acidification,VHL-deficient cells [1],about 60%
same,glycolysis in cells with wild-type VHL,cells with wild-type VHL,did not alter
same,glucose uptake in 786-O cells,786-O cells,impaired
same,glucose uptake in RCC4/VHL cells,RCC4/VHL cells; 2-deoxy-D-[3H]glucose,unaffected
same,glucose uptake in RCC4/VHL cells versus concentration,RCC4/VHL cells; increasing concentrations of STF-31,relatively stable
same,"oxygen consumption, treated versus not treated cells",[2],no difference
same,inhibition of ATP production versus concentration,VHL-deficient cells [3],dose-dependent
same,decrease in ATP levels,VHL-deficient cells [3]; VHL-deficient cells,75%
same,3-series sensitivity (sensitivity to STF-31),RCC4/VHL,No
same,3-series sensitivity (sensitivity to STF-31),786/VHL,Yes
same,Kinase response to STF-31,AMPK,92
same,Kinase response to STF-31,CSK,99
same,Kinase response to STF-31,DYRK2,94
same,Kinase response to STF-31,FGFR1,107
same,Kinase response to STF-31,IGF-1R,108
same,Kinase response to STF-31,IKKα,102
same,Kinase response to STF-31,JAK2,113
same,Kinase response to STF-31,JNK1α1,101
same,Kinase response to STF-31,MKK4,128
same,Kinase response to STF-31,NEK2,103
same,Kinase response to STF-31,PDK1,105
same,Kinase response to STF-31,PI3K,97
same,Kinase response to STF-31,PKA,96
same,Kinase response to STF-31,PKCδ,116
same,Kinase response to STF-31,Pim-2,112
same,Kinase response to STF-31,ROCK-I,74
same,Kinase response to STF-31,Rsk1,120
same,Kinase response to STF-31,SAPK2a,127
same,Kinase response to STF-31,Syk,94
same,Kinase response to STF-31,cKit(D816H),99
same,Kinase response to STF-31,cSRC,104
